Results as given in publication PMC8550792, “Evolution of kinase polypharmacology across HSP90 drug discovery” (Cell Chemical Biology, 2021).

Experiments:
Assay in all cases: biochemical
Type in all cases: biochemical
[1] = target: T1, 382 unique human kinases (Homo sapiens, UniProt P21709); conditions: EPHA1, [ATP] 20 µM, compound 10 uM; for remaining activity at 10 µM: read-out: % Enzyme Activity (relative to DMSO controls)
T1 construct: purchased Reaction Biology (HotSpot contract assay)
T1 sequence (P21709 26-976): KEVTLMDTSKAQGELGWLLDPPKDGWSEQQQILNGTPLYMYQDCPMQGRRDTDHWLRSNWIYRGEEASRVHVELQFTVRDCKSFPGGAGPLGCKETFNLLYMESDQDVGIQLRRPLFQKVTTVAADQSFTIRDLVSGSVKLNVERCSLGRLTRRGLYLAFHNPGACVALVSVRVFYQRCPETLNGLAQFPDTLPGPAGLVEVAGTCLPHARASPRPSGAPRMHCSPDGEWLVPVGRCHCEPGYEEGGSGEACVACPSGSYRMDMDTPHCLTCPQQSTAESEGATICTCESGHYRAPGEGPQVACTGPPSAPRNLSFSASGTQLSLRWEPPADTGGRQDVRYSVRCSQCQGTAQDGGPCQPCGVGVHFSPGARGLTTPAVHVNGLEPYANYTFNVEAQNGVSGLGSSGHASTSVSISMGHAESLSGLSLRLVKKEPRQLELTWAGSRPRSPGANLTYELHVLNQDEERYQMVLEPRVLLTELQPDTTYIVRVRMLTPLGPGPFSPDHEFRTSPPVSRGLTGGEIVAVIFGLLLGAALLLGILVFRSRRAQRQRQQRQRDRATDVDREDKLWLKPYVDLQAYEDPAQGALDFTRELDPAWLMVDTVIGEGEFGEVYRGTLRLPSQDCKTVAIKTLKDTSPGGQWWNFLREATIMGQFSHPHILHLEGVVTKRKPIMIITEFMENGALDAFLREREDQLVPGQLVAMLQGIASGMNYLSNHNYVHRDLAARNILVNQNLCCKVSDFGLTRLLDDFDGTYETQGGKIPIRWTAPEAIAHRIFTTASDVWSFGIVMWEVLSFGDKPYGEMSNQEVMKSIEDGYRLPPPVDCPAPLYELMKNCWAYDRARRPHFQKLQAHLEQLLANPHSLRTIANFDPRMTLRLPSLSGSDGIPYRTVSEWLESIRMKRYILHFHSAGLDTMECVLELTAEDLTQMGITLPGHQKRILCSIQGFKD

[2] = target: 382 unique human kinases (Homo sapiens, UniProt Q9Y463); conditions: DYRK1B, [ATP] 20 µM, compound 10 uM; for remaining activity at 10 µM: read-out: % Enzyme Activity (relative to DMSO controls)
Sequence of 382 unique human kinases (Homo sapiens, UniProt Q9Y463) (Q9Y463 whole entry): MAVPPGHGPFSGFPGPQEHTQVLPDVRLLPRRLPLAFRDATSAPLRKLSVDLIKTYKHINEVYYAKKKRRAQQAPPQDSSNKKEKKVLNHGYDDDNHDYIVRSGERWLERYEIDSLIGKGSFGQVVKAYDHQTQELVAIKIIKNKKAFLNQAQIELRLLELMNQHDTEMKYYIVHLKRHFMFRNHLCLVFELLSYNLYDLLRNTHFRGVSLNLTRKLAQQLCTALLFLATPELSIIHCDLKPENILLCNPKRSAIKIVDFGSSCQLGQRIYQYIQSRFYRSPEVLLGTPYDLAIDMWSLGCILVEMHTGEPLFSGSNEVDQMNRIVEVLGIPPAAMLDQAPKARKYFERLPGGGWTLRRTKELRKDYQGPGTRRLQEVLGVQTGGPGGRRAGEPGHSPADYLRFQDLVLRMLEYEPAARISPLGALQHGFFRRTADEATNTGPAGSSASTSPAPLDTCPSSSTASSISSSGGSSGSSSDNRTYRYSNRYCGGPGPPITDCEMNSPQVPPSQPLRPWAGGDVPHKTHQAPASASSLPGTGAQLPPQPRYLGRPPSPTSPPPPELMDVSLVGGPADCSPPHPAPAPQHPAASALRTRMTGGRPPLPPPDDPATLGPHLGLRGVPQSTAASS

[3] = target: T2, 382 unique human kinases (Homo sapiens, UniProt O00444); conditions: PLK4/SAK, 10 uM; for remaining activity at 10 µM: read-out: % Enzyme Activity (relative to DMSO controls)
T2 construct: purchased Reaction Biology (HotSpot contract assay)
T2 sequence (O00444 1-970): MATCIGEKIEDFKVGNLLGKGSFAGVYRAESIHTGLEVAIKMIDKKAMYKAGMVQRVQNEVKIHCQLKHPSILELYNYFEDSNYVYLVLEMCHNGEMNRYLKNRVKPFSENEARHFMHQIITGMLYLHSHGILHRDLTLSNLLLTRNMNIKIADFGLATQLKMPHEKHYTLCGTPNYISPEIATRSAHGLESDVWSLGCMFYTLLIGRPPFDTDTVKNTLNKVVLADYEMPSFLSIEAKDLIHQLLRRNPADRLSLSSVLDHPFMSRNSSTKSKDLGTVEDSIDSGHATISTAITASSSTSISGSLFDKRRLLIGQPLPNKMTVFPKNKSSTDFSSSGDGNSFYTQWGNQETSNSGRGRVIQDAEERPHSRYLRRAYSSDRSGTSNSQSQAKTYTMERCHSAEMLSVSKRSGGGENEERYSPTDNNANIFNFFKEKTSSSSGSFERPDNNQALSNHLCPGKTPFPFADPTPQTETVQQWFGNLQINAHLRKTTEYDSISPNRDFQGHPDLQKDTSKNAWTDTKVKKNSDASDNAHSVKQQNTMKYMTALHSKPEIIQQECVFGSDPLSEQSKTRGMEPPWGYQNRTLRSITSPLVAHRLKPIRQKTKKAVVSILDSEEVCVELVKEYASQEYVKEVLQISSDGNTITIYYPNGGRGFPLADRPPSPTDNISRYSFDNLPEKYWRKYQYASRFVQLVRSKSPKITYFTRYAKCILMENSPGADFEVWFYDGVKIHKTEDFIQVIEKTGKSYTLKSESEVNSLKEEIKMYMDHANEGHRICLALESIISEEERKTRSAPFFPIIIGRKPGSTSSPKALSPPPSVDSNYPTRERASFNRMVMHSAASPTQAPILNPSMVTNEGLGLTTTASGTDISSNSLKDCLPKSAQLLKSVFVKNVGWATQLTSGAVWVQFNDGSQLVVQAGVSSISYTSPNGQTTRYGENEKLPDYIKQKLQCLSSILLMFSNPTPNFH

[4] = target: T3, 382 unique human kinases (Homo sapiens, UniProt P00533, C797S); conditions: EGFR (C797S), 10 uM; for remaining activity at 10 µM: read-out: % Enzyme Activity (relative to DMSO controls)
T3 construct: purchased Reaction Biology (HotSpot contract assay)

[5] = target: T4, 382 unique human kinases (Homo sapiens, UniProt P15056, K601E); conditions: BRAF (K601E), compound at 10 uM, duplicate values; for remaining activity at 10 µM: read-out: % Enzyme Activity (relative to DMSO controls)
T4 construct: purchased Reaction Biology (HotSpot contract assay)
T4 sequence (P15056 whole entry K601E): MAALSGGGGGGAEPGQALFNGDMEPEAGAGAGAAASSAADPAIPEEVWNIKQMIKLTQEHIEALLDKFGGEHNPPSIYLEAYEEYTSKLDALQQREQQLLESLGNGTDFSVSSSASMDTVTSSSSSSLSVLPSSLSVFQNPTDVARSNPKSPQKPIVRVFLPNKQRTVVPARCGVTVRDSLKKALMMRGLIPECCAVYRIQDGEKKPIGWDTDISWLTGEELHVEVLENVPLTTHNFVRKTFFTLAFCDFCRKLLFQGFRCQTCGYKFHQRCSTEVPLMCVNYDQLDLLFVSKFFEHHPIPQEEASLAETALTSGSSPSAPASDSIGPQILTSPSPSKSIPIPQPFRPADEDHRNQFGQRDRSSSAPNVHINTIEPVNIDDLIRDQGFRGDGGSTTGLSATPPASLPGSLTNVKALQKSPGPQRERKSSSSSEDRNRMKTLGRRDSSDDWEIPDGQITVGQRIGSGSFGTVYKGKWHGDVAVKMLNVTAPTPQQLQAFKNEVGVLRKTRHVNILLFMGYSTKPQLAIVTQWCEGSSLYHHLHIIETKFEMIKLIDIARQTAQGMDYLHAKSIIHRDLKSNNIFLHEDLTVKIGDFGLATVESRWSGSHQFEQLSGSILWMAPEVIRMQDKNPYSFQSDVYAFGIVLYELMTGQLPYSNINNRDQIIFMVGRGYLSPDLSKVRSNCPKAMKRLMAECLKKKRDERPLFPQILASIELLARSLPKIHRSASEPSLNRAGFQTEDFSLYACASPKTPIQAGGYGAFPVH

[6] = target: T5, 382 unique human kinases (Homo sapiens, UniProt P37173); conditions: kinase TGFBR2, compound 10 uM; for remaining activity at 10 µM: read-out: % Enzyme Activity (relative to DMSO controls)
T5 construct: purchased Reaction Biology (HotSpot contract assay)
T5 sequence (P37173 23-567): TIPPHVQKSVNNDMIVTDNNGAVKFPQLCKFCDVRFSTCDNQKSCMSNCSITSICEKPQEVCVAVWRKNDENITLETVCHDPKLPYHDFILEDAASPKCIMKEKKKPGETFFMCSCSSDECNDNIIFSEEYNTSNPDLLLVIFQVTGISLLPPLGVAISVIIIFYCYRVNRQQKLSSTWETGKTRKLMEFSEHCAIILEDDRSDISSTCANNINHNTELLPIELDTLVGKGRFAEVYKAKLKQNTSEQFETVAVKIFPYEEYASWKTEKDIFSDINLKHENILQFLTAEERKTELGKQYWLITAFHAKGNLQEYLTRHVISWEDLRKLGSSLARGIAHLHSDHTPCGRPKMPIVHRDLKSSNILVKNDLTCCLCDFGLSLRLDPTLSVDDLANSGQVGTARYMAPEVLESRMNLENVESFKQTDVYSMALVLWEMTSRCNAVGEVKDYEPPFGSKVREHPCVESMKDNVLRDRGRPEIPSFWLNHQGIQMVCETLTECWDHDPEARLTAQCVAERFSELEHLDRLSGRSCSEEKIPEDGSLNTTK

[7] = target: T6, 382 unique human kinases (Homo sapiens, UniProt Q13882); conditions: BRK, 10 uM; for remaining activity at 10 µM: read-out: % Enzyme Activity (relative to DMSO controls)
T6 construct: purchased Reaction Biology (HotSpot contract assay)
T6 sequence (Q13882 whole entry): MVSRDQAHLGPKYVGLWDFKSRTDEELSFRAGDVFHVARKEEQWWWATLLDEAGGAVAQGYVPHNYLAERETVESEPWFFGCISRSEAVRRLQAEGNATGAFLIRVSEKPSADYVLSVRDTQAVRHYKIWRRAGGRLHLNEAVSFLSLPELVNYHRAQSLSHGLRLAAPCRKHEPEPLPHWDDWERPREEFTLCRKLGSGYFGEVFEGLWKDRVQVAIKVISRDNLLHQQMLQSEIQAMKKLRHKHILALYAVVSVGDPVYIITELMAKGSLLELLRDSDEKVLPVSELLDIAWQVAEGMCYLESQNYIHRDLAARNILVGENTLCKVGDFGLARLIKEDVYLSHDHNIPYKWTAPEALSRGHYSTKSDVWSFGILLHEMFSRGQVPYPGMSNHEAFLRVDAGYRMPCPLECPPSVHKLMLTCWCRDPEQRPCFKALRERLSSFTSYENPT

[8] = target: T7, 382 unique human kinases (Homo sapiens, UniProt Q96NX5); conditions: kinase CAMK1g, compound 10 uM; for remaining activity at 10 µM: read-out: % Enzyme Activity (relative to DMSO controls)
T7 construct: purchased Reaction Biology (HotSpot contract assay)
T7 sequence (Q96NX5 whole entry): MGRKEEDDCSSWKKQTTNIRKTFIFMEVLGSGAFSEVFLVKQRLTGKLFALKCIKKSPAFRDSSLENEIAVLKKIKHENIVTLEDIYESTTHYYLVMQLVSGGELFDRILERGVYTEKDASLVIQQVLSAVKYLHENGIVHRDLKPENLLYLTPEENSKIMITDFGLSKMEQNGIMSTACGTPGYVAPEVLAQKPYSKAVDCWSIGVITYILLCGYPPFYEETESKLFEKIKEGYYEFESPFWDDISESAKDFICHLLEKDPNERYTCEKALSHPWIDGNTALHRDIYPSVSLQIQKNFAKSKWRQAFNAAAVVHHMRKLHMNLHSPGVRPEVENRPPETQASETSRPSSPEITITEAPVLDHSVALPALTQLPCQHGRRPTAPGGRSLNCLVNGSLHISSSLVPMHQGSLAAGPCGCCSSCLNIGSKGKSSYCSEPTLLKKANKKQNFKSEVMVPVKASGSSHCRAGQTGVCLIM

[9] = target: T8, 382 unique human kinases (Homo sapiens, UniProt Q9Y6M4); conditions: kinase CK1g3, compound 10 uM; for remaining activity at 10 µM: read-out: % Enzyme Activity (relative to DMSO controls)
T8 construct: purchased Reaction Biology (HotSpot contract assay)
T8 sequence (Q9Y6M4 whole entry): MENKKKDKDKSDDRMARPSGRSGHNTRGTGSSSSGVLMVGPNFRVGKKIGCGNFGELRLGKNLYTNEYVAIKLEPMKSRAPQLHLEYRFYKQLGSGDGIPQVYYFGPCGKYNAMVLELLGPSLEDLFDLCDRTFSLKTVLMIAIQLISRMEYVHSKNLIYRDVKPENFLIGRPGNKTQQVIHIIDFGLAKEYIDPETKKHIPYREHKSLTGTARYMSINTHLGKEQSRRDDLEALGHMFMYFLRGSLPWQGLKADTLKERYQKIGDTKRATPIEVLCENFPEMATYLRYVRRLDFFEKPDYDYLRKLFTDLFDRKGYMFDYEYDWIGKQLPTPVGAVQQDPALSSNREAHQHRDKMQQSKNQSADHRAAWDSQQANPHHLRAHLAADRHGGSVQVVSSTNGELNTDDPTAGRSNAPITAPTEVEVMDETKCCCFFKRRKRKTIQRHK

| Structure (SMILES) | % Enzyme Activity (relative to DMSO controls) [1] | remaining activity at 10 µM [1] | % Enzyme Activity (relative to DMSO controls) [2] | remaining activity at 10 µM [2] | remaining activity at 10 µM [3] | remaining activity at 10 µM [4] | remaining activity at 10 µM [5] | remaining activity at 10 µM [6] | remaining activity at 10 µM [7] | remaining activity at 10 µM [8] | remaining activity at 10 µM [9] | % Enzyme Activity (relative to DMSO controls) [3] | % Enzyme Activity (relative to DMSO controls) [4] | % Enzyme Activity (relative to DMSO controls) [5] | % Enzyme Activity (relative to DMSO controls) [6] | % Enzyme Activity (relative to DMSO controls) [7] | % Enzyme Activity (relative to DMSO controls) [8] | % Enzyme Activity (relative to DMSO controls) [9] |
| --- | --- | --- | --- | --- | --- | --- | --- | --- | --- | --- | --- | --- | --- | --- | --- | --- | --- | --- |
| CCNC(=O)c1noc(-c2cc(C(C)C)c(O)cc2O)c1-c1ccc(CN2CCOCC2)cc1 [Luminespib] | 101.19% | 102% | 97.25% | 98.9% |  |  |  |  |  |  |  |  |  |  |  |  |  |  |
| CC(C)c1cc(-c2n[nH]c(=O)n2-c2ccc3c(ccn3C)c2)c(O)cc1O [Ganetespib (STA9090)] |  |  |  |  | 78.2% | 70.9% | 107% | 92.9% | 67.4% | 86.8% | 82% |  |  |  |  |  |  |  |
| CCNC(=O)c1noc(-c2cc(C(C)C)c(O)cc2O)c1-c1ccc(CN2CCOCC2)cc1 [Luminespib (AUY-922)] |  |  |  |  | 89.6% | 103% | 101% | 129% | 84.8% | 97.8% | 99.7% | 86.84% | 99.85% | 100.38% | 124.56% | 83.67% | 93.84% | 98.54% |
| CC(C)c1cc(-c2n[nH]c(=O)n2-c2ccc3c(ccn3C)c2)c(O)cc1O [Ganetespib] |  | 60.7% |  | 45% |  |  |  |  |  |  |  |  |  |  |  |  |  |  |
